{"source": "patent US20070155771A1", "about": "“Methods and means for treating protein conformational disorders” (priority 2003, published 2007)", "key": {"[1]": {"test_system": "mTOR-dependent TOP-translation", "experiment": "TOP-luciferase reporter assay in PC12 cells stably expressing Q23 or Q74", "assay_type": "cell-based, rat", "procedure": "PC12 cells stably expressing Q23 or Q74 were transfected with a luciferase construct having a 5′ untranslated region from the eEF2 gene containing a terminal oligopyrimidine tract (TOP-luciferase) or without the TOP sequence (Control-luciferase) along with β-galactosidase (to control transfection efficiency). Transfected cells were maintained in serum free medium with doxycycline for 36 hours following which the cells were stimulated with 15% serum with or without rapamycin for 3 h. Cells were then lysed and luciferase assays were performed according to standard protocol. COS-7 cells were co-transfected with Q23 or Q74 with control- or TOP-luciferase along with β-gal and experiments were performed as above. […] Experiments were performed in sextuplicate and repeated several times.\nPhosphorylation of the ribosomal protein S6 by S6K1 positively regulates the translation initiation of mRNAs containing 5′-terminal oligopyrimidine tracts (5′-TOP), like mRNAs coding for ribosomal proteins and translation elongation factors. A previously validated luciferase reporter assay was used to measure mTOR-dependent TOP-translation (Kim, J. E. & Chen, J. Proc Natl Acad Sci USA 97, 14340-14345 (2000), Schwab, M. S. et al. Mol Cell Biol 19, 2485-2494 (1999)). Rapamycin is a specific inhibitor of mTOR. Comparison of cells for TOP-dependent translation with this assay in the presence or absence of rapamycin allows assessment of the amount of functional cellular mTOR that can be inhibited by rapamycin. In FIG. 10C, each bar represents the difference between the luciferase activities (corrected for transfection efficiency-see methods) in the presence vs. the absence of rapamycin, for a luciferase reporter with a TOP sequence (+TOP) (FIG. 10A) and otherwise identical control construct without the TOP sequence (−TOP) (FIG. 10B)."}, "[2]": {"test_system": "LC3-stained vesicles (autophagosomes)", "experiment": "Number of LC3-stained vesicles (autophagic activity)", "assay_type": "cell-based", "conditions": "rapamycin treatment", "text": "Immunocytochemistry was done in COS-7 cells fixed with 4% paraformaldehyde (Sigma). Free-floating mouse brain sections from HD transgenic and control brains and paraffin-embedded HD grade III and control brain slices spanning the caudate and putamen regions were used for histochemical analysis. Primary antibodies used: anti-mTOR, anti-phospho-mTOR (Ser2448), anti-4E-BP1, anti-phospho-S6 (Ser235/236) (Cell signalling technologies), anti-LC3 (kind gift from Dr Yoshimori) and anti-huntingtin and anti-ubiquitin (both from Chemicon). Immunohistochemistry was performed by standard fluorescence methods or peroxidase labelling using Vectastain Avidin: Biotinylated enzyme Complex (ABC) kit. Relevant negative controls without the primary antibodies were performed alongside all the experiments.\nLC3-II is a form of microtubule associated protein-1 light chain-3 (MAP-LC3), which is associated with mammalian autophagosomes (Kabeya, Y. et al. Embo J 19, 5720-5728 (2000)). […] While this effect was subtle, it was consistent and reproducible in four independent experiments. In addition, LC3-II increased upon induction of mutant huntingtin fragment expression in the stable PC12 cells, while no difference was seen upon induction of the Q23 cells. Another way one can score autophagic activity is to assess the number of LC3-stained vesicles."}, "[3]": {"test_system": "COS-7 cells expressing an exon 1 fragment of the HD gene with 74 glutamines (Q74)", "experiment": "Aggregate formation and abnormal cell nuclei in transiently transfected COS-7 cells expressing Q74", "assay_type": "cell-based, African green monkey", "conditions": "24 hours post transfection; 0.2 μg/ml rapamycin"}}}
{"substance": "rapamycin", "values": [{"measurement": "inhibition of TOP-dependent (+TOP) expression of luciferase", "setting": "[1]; Q23-expressing PC12 cells, after serum stimulation, 3 h", "value": "about 18%"}, {"measurement": "luciferase activity, control-luciferase construct without the TOP sequence (−TOP)", "setting": "[1]; Q23 cells", "value": "no inhibitory effect"}, {"measurement": "inhibition of TOP-dependent (+TOP) expression of luciferase", "setting": "[1]; Q74-expressing PC12 cells", "value": "no such inhibitory effect"}, {"measurement": "number of LC3-stained vesicles", "setting": "[2]", "value": "marked increase"}, {"measurement": "cell death in Q74-expressing cells", "setting": "[3]", "value": "reduced"}, {"measurement": "proportions of cells with Q74 aggregates", "setting": "[3]", "value": "reduced"}]}
